Assay results reported in BindingDB's records for doi:10.1021/acs.jmedchem.9b00775 (University of North Carolina at Chapel Hill, 2020).

Assays:
[1] = Inhibition of RNA-dependent RNA polymerase in Zika virus infected in African green monkey Vero cells assessed as antiviral activity by DAPI-staining based assay
[2] = Inhibition of RNA-dependent RNA polymerase in Zika virus infected in human NPC assessed as antiviral activity by DAPI-staining based assay
[3] = target: T1, Nonstructural protein 3 (Zika virus, UniProt A0A024AXB9); test: Inhibition of NS2B-NS3 protease in Zika virus Puerto Rico/PRVABC5 infected in human Huh7 cells assessed as antiviral activity measured 48 hrs post infection by RT-PCR method
[4] = target: T1, Nonstructural protein 3; test: Inhibition of NS2B-NS3 protease in Zika virus Puerto Rico/PRVABC5 infected in African green monkey Vero cells assessed as antiviral activity measured 48 hrs post infection by RT-PCR method
[5] = target: T1, Nonstructural protein 3; test: Inhibition of NS2B-NS3 protease in Zika virus Puerto Rico/PRVABC5 assessed as antiviral activity measured 48 hrs post infection by plaque reduction assay
[6] = Inhibition of RNA-dependent RNA polymerase in Zika virus MR766 infected in African green monkey Vero cells assessed as antiviral activity after 72 hrs by DAPI staining based assay
[7] = Inhibition of RNA-dependent RNA polymerase in Zika virus PRVABC59 infected in African green monkey Vero cells infected with supernatants from virus-infected human SNB-19 cells treated with compound for 1 hr assessed as antiviral activity after 48 to 72 hrs
[8] = Inhibition of RNA-dependent RNA polymerase in Zika virus MR766 infected in HEK293 cells assessed as antiviral activity by measuring NS1 protein expression preincubated for 1 hr followed by viral infection and measured after 24 hrs by TR-FRET assay
[9] = target: T2, Genome polyprotein (Zika virus, UniProt A0A143MHK7); test: Inhibition of RNA-dependent RNA polymerase in Zika virus Ugandan MR-766 infected in human RD cells assessed as antiviral activity by neutral dye based colorimetric method
[10] = target: T2, Genome polyprotein; test: Inhibition of RNA-dependent RNA polymerase in Zika virus Ugandan MR-766 infected in African green monkey Vero cells assessed as antiviral activity by neutral dye based colorimetric method
[11] = target: T2, Genome polyprotein; test: Inhibition of RNA-dependent RNA polymerase in Zika virus PRVABC-59 infected in human RD cells assessed as antiviral activity by neutral dye based colorimetric method
[12] = target: T2, Genome polyprotein; test: Inhibition of RNA-dependent RNA polymerase in Zika virus Malaysian P 6-740 infected in African green monkey Vero cells assessed as antiviral activity by neutral dye based colorimetric method
[13] = target: T2, Genome polyprotein; test: Inhibition of RNA-dependent RNA polymerase in Zika virus PRVABC-59 infected in African green monkey Vero cells assessed as antiviral activity by neutral dye based colorimetric method
[14] = target: T2, Genome polyprotein; test: Inhibition of RNA-dependent RNA polymerase in Zika virus Malaysian P 6-740 infected in human Huh-7 cells assessed as antiviral activity by neutral dye based colorimetric method
[15] = target: T2, Genome polyprotein; test: Inhibition of RNA-dependent RNA polymerase in Zika virus Ugandan MR-766 infected in human Huh-7 cells assessed as antiviral activity by neutral dye based colorimetric method
[16] = target: T2, Genome polyprotein; test: Inhibition of RNA-dependent RNA polymerase in Zika virus PRVABC-59 infected in human HuH7 cells assessed as antiviral activity by neutral dye based colorimetric method
[17] = Inhibition of RNA-dependent RNA polymerase in Zika virus PRVABC59/Human/2015/Puerto Rico infected in human NSC assessed as antiviral activity measured 72 hrs post infection by CellTiter-Glo assay
[18] = Inhibition of RNA-dependent RNA polymerase in Zika virus H/PAN/2016/BEI-259634 infected in human NSC assessed as antiviral activity measured 72 hrs post infection by CellTiter-Glo assay
[19] = target: T2, Genome polyprotein; test: Inhibition of RNA-dependent RNA polymerase in Zika virus GZ01/2016 infected in African green monkey Vero cells assessed as antiviral activity measured 48 hrs post infection by plaque assay
[20] = target: T2, Genome polyprotein; test: Inhibition of RNA-dependent RNA polymerase in Zika virus FSS13025/2010 infected in African green monkey Vero cells assessed as antiviral activity by measuring viral RNA by RT-qPCR method
[21] = target: T2, Genome polyprotein; test: Inhibition of RNA-dependent RNA polymerase in Zika virus FSS13025/2010 infected in African green monkey Vero cells assessed as antiviral activity measured 48 hrs post infection by plaque assay
[22] = target: T2, Genome polyprotein; test: Inhibition of RNA-dependent RNA polymerase in Zika virus GZ01/2016 infected in African green monkey Vero cells assessed as antiviral activity by measuring viral RNA by RT-qPCR method
[23] = Inhibition of RNA-dependent RNA polymerase in Zika virus PRVABC59 infected in African green monkey Vero cells assessed as antiviral activity measured 96 hrs post infection by plaque assay
[24] = target: T2, Genome polyprotein; test: Inhibition of RNA-dependent RNA polymerase in Zika virus MR766 infected in African green monkey Vero cells assessed as antiviral activity by measuring reduction in virus-yield
[25] = target: T2, Genome polyprotein; test: Inhibition of RNA-dependent RNA polymerase in Zika virus MR766 infected in African green monkey Vero cells assessed as antiviral activity by Alexa Fluor 488/DAPI staining based assay
[26] = target: T2, Genome polyprotein; test: Inhibition of RNA-dependent RNA polymerase in Zika virus MR766 infected in African green monkey Vero cells assessed as antiviral activity by methylene blue staining based by Plaque reduction assay
[27] = target: T2, Genome polyprotein; test: Inhibition of RNA-dependent RNA polymerase in Zika virus MR766 infected in African green monkey Vero cells assessed as antiviral activity by measuring reduction in virus-induced cytopathic effect after 5 days by MTS assay
[28] = Inhibition of RNA-dependent RNA polymerase in Zika virus MR766 infected in African green monkey Vero E6 cells assessed as antiviral activity
[29] = Inhibition of MTase in Zika virus infected in African green monkey Vero cells assessed as antiviral activity incubated for 5 days by inverted microscopic method

T2 sequence (A0A143MHK7 whole entry): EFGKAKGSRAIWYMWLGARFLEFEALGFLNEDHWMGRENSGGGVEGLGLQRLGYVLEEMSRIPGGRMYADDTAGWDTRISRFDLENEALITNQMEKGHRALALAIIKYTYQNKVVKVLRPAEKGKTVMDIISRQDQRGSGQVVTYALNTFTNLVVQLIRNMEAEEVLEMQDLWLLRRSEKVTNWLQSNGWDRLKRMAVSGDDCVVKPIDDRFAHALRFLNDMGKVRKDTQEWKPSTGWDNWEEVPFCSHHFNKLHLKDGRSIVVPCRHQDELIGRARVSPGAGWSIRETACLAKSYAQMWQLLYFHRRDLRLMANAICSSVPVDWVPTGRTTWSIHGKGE
T1 sequence (A0A024AXB9 whole entry): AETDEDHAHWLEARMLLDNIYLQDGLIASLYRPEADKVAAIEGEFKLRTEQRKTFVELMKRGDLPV

With `CC(C)OC(=O)[C@H](C)N[P@](=O)(OC[C@H]1O[C@@H](n2ccc(=O)[nH]c2=O)[C@](C)(F)[C@@H]1O)Oc1ccccc1` [CHEBI:85083] the EC50 [1] was 30900 nM and the EC50 [2] was 120 nM.

`CO[C@@H]1[C@@H](OC(N)=O)[C@@H](O)[C@H](Oc2ccc3c(O)c(NC(=O)c4ccc(O)c(CC=C(C)C)c4)c(=O)oc3c2C)OC1(C)C` [Carbamic acid 5-hydroxy-6-{4-hydroxy-3-[4-hydroxy-3-(3-methyl-but-2-enyl)-benzoylamino]-8-methyl-2-oxo-2H-chromen-7-yloxy}-3-methoxy-2,2-dimethyl-tetrahydro-pyran-4-yl ester(Novobiocin)] gave an EC50 [3] of 24400 nM, an EC50 [4] of 24400 nM and an EC50 [5] of 24400 nM.

For `NC(=O)c1ncn([C@@H]2O[C@H](CO)[C@@H](O)[C@H]2O)n1` [Tribavirin], the EC50 [6] was 20800 nM.

`CC[C@H]1CN2CCc3cc(OC)c(OC)cc3[C@@H]2C[C@@H]1C[C@H]1NCCc2cc(OC)c(OC)cc21` [6',7',10,11-tetramethoxyemetan] gave an EC50 [7] of 8.7 nM and an EC50 [8] of 53 nM.

With `Nc1ncnc2c([C@@H]3N[C@H](CO)[C@@H](O)[C@H]3O)c[nH]c12` [BCX-4430] the EC50 [9] was 14300 nM, the EC50 [10] was 14300 nM and the EC50 [11] was 14300 nM. It also gave an EC50 [12] of 14300 nM, an EC50 [13] of 14300 nM and an EC50 [14] of 14300 nM. It also gave an EC50 [15] of 14300 nM and an EC50 [16] of 14300 nM.

Molecule `C#C[C@@]1(O)[C@H](O)[C@@H](COP(=O)(N[C@@H](C)C(=O)OC(C)C)Oc2ccccc2)O[C@H]1n1ccc(=O)[nH]c1=O` (stereo partly specified) has an EC50 [17] of 300 nM and an EC50 [18] of 800 nM.

For `C#C[C@@]1(O)[C@H](O)[C@@H](CO)O[C@H]1n1ccc2c(N)ncnc21` [NITD008], the EC50 [19] was 137 nM, the EC50 [20] was 137 nM and the EC50 [21] was 137 nM. For the same molecule, the EC50 [22] was 137 nM.

Molecule `CC(C)OC(=O)[C@H](C)NP(=O)(OC[C@H]1O[C@@H](n2ccc(=O)[nH]c2=O)[C@H](O)[C@@H]1O)Oc1ccccc1` (stereo partly specified) has an EC50 [17] of 1000 nM and an EC50 [18] of 2000 nM.

In the case of `O=C(NC(=S)Nc1ccc(N2CCN(C(=O)c3cccs3)CC2)cc1)c1sc2ccccc2c1Cl`, the EC50 [23] is reported as 94 nM.

In the case of `Nc1ncnc2c1ccn2[C@@H]1O[C@H](CO)[C@@H](O)[C@H]1O` ['2-(4-AMINO-PYRROLO[2,3-D]PYRIMIDIN-7-YL)-5-HYDROXYMETHYL-TETRAHYDRO-FURAN-3,4-DIOL], the EC50 [24] is reported as 1300 nM, the EC50 [25] is reported as 1300 nM and the EC50 [26] is reported as 1300 nM. For the same molecule, the EC50 [27] was 1300 nM.

Molecule `CCCCCOCc1c(Nc2ccc(S(N)(=O)=O)cc2)nc(N2CCOCC2)nc1C(=O)NCCOc1ccccc1` has an EC50 [28] of 2040 nM.

In the case of `O=C1c2cccc3cccc(c23)C(=O)N1CCc1ccc(S(=O)(=O)N2CCN(c3ccccc3)CC2)cc1`, the EC50 [29] is reported as 4800 nM.
